Reference: US9504702B2, “Methods of inhibition of protein fucosylation in vivo using fucose analogs” (Seattle Genetics, Inc., priority 2010, dated 2016)
Like-named read-outs stand apart in the source and are kept apart here.

Tests used:
[1] = tested on: antibody core fucosylation (CHO DG44 cell line producing humanized IgG1 anti-CD70 antibody h1F6); assay: Inhibition of antibody core fucosylation in CHO DG44 cell culture producing h1F6; type: cell-based; details: day 5, CHO DG44 h1F6; for Inhibition at 50 μM: 50 μM fucose analog; for Inhibition at 1 mM / inhibition at 1000 µM: 1 mM fucose analog
Method: Fucose analogs have been evaluated for their effect on antibody core fucosylation at concentrations of 50 μM and 1 mM generally as described in Published US Patent Application 2009-0317869. Briefly, the protocol was as follows: A CHO DG44 cell line producing a humanized IgG1 anti-CD70 monoclonal antibody, h1F6 (see International Patent Publication WO 06/113909) was cultured at 7.5×10^5 cells per mL in 2 mLs of CHO culture media at 37°, 5% CO2 and shaking at 100 RPM in a 6 well tissue culture plate. Media was supplemented with insulin like growth factor (IGF), penicillin, streptomycin and either 1 mM or 50 μM of the fucose analog. On day 5 post inoculation, the culture was centrifuged at 13000 RPM for 5 minutes to pellet the cells; antibodies were then purified from supernatant.
Antibody purification was performed by applying the conditioned media to protein A resin pre-equilibrated with 1× phosphate buffered saline (PBS), pH 7.4. After washing resin with 20 resin bed volumes of 1×PBS, antibodies were eluted with 5 resin bed volumes of Immunopure IgG elution buffer (Pierce Biotechnology, Rockford, Ill.). A 10% volume of 1M Tris pH 8.0 was added to neutralize the eluted fraction.

[2] = tested on: LP-1, a human multiple myeloma cell line (IgG fucosylation); assay: Fucosylation of LP-1-generated IgG, AOL dot blot; type: cell-based; details: for % of control fucosylated IgG value / inhibition of IgG fucosylation in human cells (decrease in AOL signal, dot blot) / dot blot results (% fucose signal of control): 100 μM; for % of control fucosylated IgG value / activity at 100 µM: 5 days, AOL dot blot, multiple samples separated by semicolon; for % of control fucosylated IgG value / activity at 100 µM / inhibition of IgG fucosylation in human cells (decrease in AOL signal, dot blot): LP-1 cells; for activity at 100 µM: Homo sapiens, LP-1, 120 h, read-out: % of control fucosylated IgG value; for dot blot results (% fucose signal of control): LP-1-generated IgG
Method: To further evaluate the activities of different fucose analogs, 48 different fucose analogs and other four glycosylation inhibitors were tested for their ability to affect the fucosylation the LP-1-generated IgG. LP-1 cells (250,000 cells/mL, 3 mL per compound in 6-well plates) were incubated with 100 μM of each fucose analog for 5 days at 37° C. with a humidified atmosphere of 5% CO2 in IgG-depleted tissue culture media (90% RPMI with 10% IgG-depleted heat inactivated FBS). The IgG was isolated as described above using only 0.5 mL of MabSelect™ protein A resin slurry and one spin cup per sample with elution in 400 μL of IgG elution buffer into 25 μL of 9 M Tris buffer, pH 9. The eluates were concentrated to 10-20 μL per sample and 2 μL of each of the concentrated eluates were dotted onto a nitrocellulose membrane and stained with Ponceau S to estimate and adjust the sample loading for AOL staining. From this estimation of total protein in each sample, approximately 0.5 μg of each sample was dotted onto the membrane, air-dried, and stained with Ponceau S. An image of this stained membrane was captured using an Alpha Innotech FlourChem® Q system. The membrane was then blocked with 5% Bovine Serum Albumin (BSA) in Tris Buffered Saline (TBS) for 1 hr, washed with TBST (TBS with […]) 3 times and then incubated with 5 μg/ml biotinylated-AOL for 1 hr. The membrane was washed again with TBST 3 times, followed by Streptavidin-HRP incubation for 30 min and final washes with TBST 3 times.

[3] = CHO-DG44, 120 h, read-out: Inhibition at 50 μM
[4] = 120 h, read-out: Inhibition at 50 μM

alkynyl fucose tetranicotinate [SGD-2047]
Inhibition at 50 μM [1]: >80%
Inhibition at 1 mM [1]: >80%
% of control fucosylated IgG value [2]: 50 % of control

CC(=O)OC1OC(CI)[C@@H](OC(C)=O)[C@@H](OC(C)=O)[C@@H]1OC(C)=O (stereo partly drawn) [6-iodo-fucose tetraacetate, (3S,4R,5S)-6-(iodomethyl)tetrahydro-2H-pyran-2,3,4,5-tetrayl tetraacetate]
Inhibition at 50 μM [1, 3]: 3%
inhibition at 1000 µM ([1]; CHO-DG44, 120 h): 30%

CC(=O)OC1COC(C)C(OC(C)=O)C1OC(C)=O (centres unmarked) [SGD-2081, 1-deoxy fucose triacetate]
% of control fucosylated IgG value [2]: 70 % of control

O[C@H]1[C@H](O)[C@@H](O)CN2CC[C@H](O)[C@H]12 [SGD-1960, castanospermine, reference compound]
activity at 100 µM [2]: 300%

CC(=O)OC(CCC#N)[C@@H](OC(C)=O)[C@@H](OC(C)=O)[C@@H](C=O)OC(C)=O (some centres unmarked) [SGD-2070, 5-(2-cyanoethyl)arabinose tetraacetate]
activity at 100 µM [2]: 51%

5-carboxamido fucose tetraacetate [SGD-1995]
% of control fucosylated IgG value [2]: 79 % of control

5-epoxy fucose tetraacetate [SGD-2020]
% of control fucosylated IgG value [2]: 5 % of control
inhibition of IgG fucosylation in human cells (decrease in AOL signal, dot blot) [2]: potentially strong inhibitors
dot blot results (% fucose signal of control) [2]: 5 % fucose signal of control

6-alkyne-6-acetoxy fucose tetraacetate [SGD-2004]
% of control fucosylated IgG value [2]: 29 % of control

C#CC(OC(=O)CCCCC)[C@@H](OC(=O)CCCCC)[C@@H](OC(=O)CCCCC)[C@@H](C=O)OC(=O)CCCCC (some centres unmarked) [SGD-2012, 5-ethynylarabinose tetrahexanoate]
Inhibition at 50 μM [1, 3]: > 80%
inhibition at 1000 µM ([1]; CHO-DG44, 120 h): > 80%
activity at 100 µM [2]: 67%

CC(=O)OC1C=COC(C)C1OC(C)=O (centres unmarked) [SGD-2080, 1,2-dideoxy-1,2-dehydro fucose diacetate]
% of control fucosylated IgG value [2]: 159 % of control

alkynyl fucose tetraisobutanoate [SGD-2043]
Inhibition at 50 μM [1]: >80%
Inhibition at 1 mM [1]: >80%
% of control fucosylated IgG value [2]: 34 % of control

O=C[C@H](O)[C@@H](O)[C@@H](O)[C@H](O)CS [SGD-2025, 6-thio galactose pentaacetate]
activity at 100 µM [2]: 44%

C[C@H](O)[C@@H](O)[C@@H](O)[C@@H](O)C=O [SGD-2113, 6-deoxy-L-talose]
activity at 100 µM [2]: 93%

1-methyl alkynyl fucose triacetate [SGD-2059]
Inhibition at 50 μM [1]: 68%
Inhibition at 1 mM [1]: >80%
% of control fucosylated IgG value [2]: 89 % of control

CC(=O)OC1OC(CCl)[C@@H](OC(C)=O)[C@@H](OC(C)=O)[C@@H]1OC(C)=O (stereo partly drawn) [6-chloro-fucose tetraacetate, (3S,4R,5S)-6-(chloromethyl)tetrahydro-2H-pyran-2,3,4,5-tetrayl tetraacetate]
Inhibition at 50 μM [1, 3]: 20%
inhibition at 1000 µM ([1]; CHO-DG44, 120 h): 20 to 30%

alkynyl fucose tetraisonicotinate [SGD-2058]
Inhibition at 50 μM [1]: >80%
Inhibition at 1 mM [1]: >80%
% of control fucosylated IgG value [2]: 34 % of control

CO[C@@H]1O[C@@H](C)[C@@H](O)[C@@H](O)[C@@H]1O [SGD-1932, Methyl a-L-fucopyranoside]
% of control fucosylated IgG value [2]: 87 % of control

alkynyl fucose tetra PEG ester [SGD-2057]
Inhibition at 50 μM [1]: >80%
Inhibition at 1 mM [1]: >80%
% of control fucosylated IgG value [2]: 64 % of control

CC(=O)OC1C(C)OC(OC(C)=O)C(F)(F)C1OC(C)=O (stereo not drawn) [2-deoxy-2,2-difluorofucopyranose triacetate (alpha)]
Inhibition at 50 μM [1]: 0%
Inhibition at 1 mM [1]: 64%

CC(=O)OC(CC(=O)O)[C@@H](OC(C)=O)[C@@H](OC(C)=O)[C@@H](C=O)OC(C)=O (some centres unmarked) [SGD-1959, 5-carboxymethyl arabinose tetraacetate]
Inhibition at 50 μM [1, 4]: 30%
inhibition at 1000 µM ([1]; 120 h): > 80%
activity at 100 µM [2]: 94%

CC(=O)OC(C#N)[C@H]1OC(OC(C)=O)[C@@H](OC(C)=O)[C@@H]1OC(C)=O (some centres unmarked) [5-cyanoarabinofuranose tetraacetate]
Inhibition at 50 μM [1, 4]: 5 to 10%

CC(=O)OC[C@@H](OC(C)=O)[C@H](OC(C)=O)[C@H](OC(C)=O)[C@H](C=O)OC(C)=O [SGD-2074, D-galactose pentaacetate]
activity at 100 µM [2]: 118%

CC(=O)O[C@@H]([C@@H](C=O)OC(C)=O)[C@H](OC(C)=O)C(C)(C)OC(C)=O [SGD-1964, 5-methylketo fucose tetraacetate]
inhibition of IgG fucosylation in human cells (decrease in AOL signal, dot blot) [2]: potentially strong inhibitors
activity at 100 µM [2]: 5%
dot blot results (% fucose signal of control) [2]: 5 % fucose signal of control

CCC(=O)[C@H](OC(C)=O)[C@@H](OC(C)=O)[C@@H](OC(C)=O)[C@@H](C=O)OC(C)=O [SGD-2067, 6-keto-6-ethyl fucose tetraacetate]
inhibition of IgG fucosylation in human cells (decrease in AOL signal, dot blot) [2]: potentially strong inhibitors
activity at 100 µM [2]: 3%
dot blot results (% fucose signal of control) [2]: 3 % fucose signal of control

CC(=O)OC1O[C@@H](C(C)C)[C@@H](OC(C)=O)[C@@H](OC(C)=O)[C@@H]1OC(C)=O (stereo partly drawn) [SGD-1977, (3S,4R,5R,6S)-6-isopropyltetrahydro-2H-pyran-2,3,4,5-tetrayl tetraacetate]
activity at 100 µM [2]: 79%

CC(=O)OC1OC(C#N)[C@@H](OC(C)=O)[C@@H](OC(C)=O)[C@@H]1OC(C)=O (some centres unmarked) [5-cyanoarabinopyranose tetraacetate]
Inhibition at 50 μM [1, 4]: 20%

C#C[C@@H]1OC(OC(=O)CC)[C@@H](OC(=O)CC)[C@H](OC(=O)CC)[C@@H]1OC(=O)CC (some centres unmarked) [SGD-2010, 5-ethynylarabinose tetrapropropanoate]
Inhibition at 50 μM [1]: >80%
Inhibition at 1 mM [1]: >80%
% of control fucosylated IgG value [2]: 1.5 % of control
inhibition of IgG fucosylation in human cells (decrease in AOL signal, dot blot) [2]: potentially strong inhibitors

C#CC1OC(OC(=O)C(C)(C)C)C(O)C(OC(=O)C(C)(C)C)C1O (centres unmarked) [Alkynyl fucose di(trimethylacetate), 5-ethynylarabinose 1,3-(trimethylacetate)]
Inhibition at 50 μM [1]: >80%

CC(=O)OC1C(C)OC(OC(C)=O)C(F)(F)C1OC(C)=O (stereo not drawn) [2-deoxy-2,2-difluorofucopyranose triacetate (beta)]
Inhibition at 50 μM [1]: 0%
Inhibition at 1 mM [1]: 75%

COC(=O)[C@@H]1OC(OC(C)=O)[C@@H](OC(C)=O)[C@H](OC(C)=O)[C@@H]1OC(C)=O (some centres unmarked) [SGD-2061, 6-carboxymethyl ester fucose tetraacetate]
% of control fucosylated IgG value [2]: 71 % of control

C#CCNC[C@H](O)[C@@H](O)[C@@H](O)[C@H](O)C=O [SGD-1950, 6-propargylamino fucose]
activity at 100 µM [2]: 40%

benzyloxy fucose tetraacetate [SGD-2048]
Inhibition at 50 μM [1]: 0%
Inhibition at 1 mM [1]: 75%
% of control fucosylated IgG value [2]: 114 % of control

O=C1O[C@H]([C@@H](O)CO)[C@@H](O)[C@@H]1O [SGD-1931, L-galactono-1,4-lactone]
activity at 100 µM [2]: 81%

CC(=O)O[C@@H]1[C@H](OC(C)=O)[C@H](C)OC(F)[C@H]1F (some centres unmarked) [SGD-2082, 1,2-difuloro fucose diacetate]
Inhibition at 50 μM [1]: >80%
Inhibition at 1 mM [1]: >80%
% of control fucosylated IgG value [2]: 87 % of control

C#CC1OC(OC(=O)C(C)(C)C)C(OC(=O)C(C)(C)C)C(OC(=O)C(C)(C)C)C1O (centres unmarked) [Alkynyl fucose 1,2,3-(trimethylacetate), 5-ethynylarabinose 1,2,3-(trimethylacetate)]
Inhibition at 50 μM [1]: ~0%

CC(=O)OC1CC(OC(C)=O)C(OC(C)=O)C(C)O1 (centres unmarked) [SGD-2108, 6-methyl-tetrahydro-2H-pyran-2,4,5-triyl triacetate]
Inhibition at 50 μM [1, 3]: 0%
activity at 100 µM [2]: 104%
